Literature values, collected in article PMC2000878, “Module structure of interphotoreceptor retinoid-binding protein (IRBP) may provide bases for its complex role in the visual cycle – structure/function study of Xenopus IRBP” (BMC Biochemistry, 2007).
Like-named read-outs stand apart in the source and are kept apart here.

Molecular target: T1, Xenopus IRBP Module 2 (Xenopus laevis, UniProt Q7SZI7)
T1 construct: cDNAs corresponding to the full-length IRBP, module 1, and module 2 were expressed in pThioHis; modules 3 and 4 were expressed in pTrxFus; made in house; host or cells: E. coli Top10 (pThioHis)
T1 sequence (Q7SZI7 319-617 limits assumed): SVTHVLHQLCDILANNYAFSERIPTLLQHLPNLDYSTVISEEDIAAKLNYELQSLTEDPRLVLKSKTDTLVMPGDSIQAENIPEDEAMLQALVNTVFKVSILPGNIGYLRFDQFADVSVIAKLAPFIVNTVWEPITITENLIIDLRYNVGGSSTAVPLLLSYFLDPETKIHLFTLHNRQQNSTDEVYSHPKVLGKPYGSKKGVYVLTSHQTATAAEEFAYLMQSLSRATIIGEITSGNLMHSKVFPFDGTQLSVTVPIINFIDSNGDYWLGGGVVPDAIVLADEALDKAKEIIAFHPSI
Set-up: method as in Loew et al. Exp Eye Res. 2001, 73:257–264
Details: ref Loew et al. Exp Eye Res. 2001, 73:257–264, cited from earlier work

In the case of CC1=C(/C=C/C(C)=C/C=C/C(C)=C/CO)C(C)(C)CCC1 [all-trans retinol], the “Binding sites (N), Enhancement” value (all-trans retinol fluorescence enhancement, ex 330 nm, em 480 nm) is given as 1.57 ± 0.04, the Kd (all-trans retinol fluorescence enhancement, ex 330 nm, em 480 nm, read-out: Kd, Enhancement) is given as 84 ± 22 nM and the “Binding sites (N), Quenching” value (quenching by all-trans retinol, ex 280 nm, em 340 nm) is given as 1.31 ± 0.06. The Kd (quenching by all-trans retinol, ex 280 nm, em 340 nm, read-out: Kd, Quenching) was 140 ± 40 nM.
